Test results reported in patent publication US10155047B2, “Polymers having therapeutically active agents conjugated thereto, processes of preparing same and uses thereof” (Ramot at Tel-Aviv University Ltd., priority 2012, dated 2018).
Ends that are not written are not given here.

Legend:
HUVECs = experiment: Capillary-like tube formation assay of HUVECs; format: cell-based, human; settings: PTX-equivalent concentrations of 80 nM
Description: The surface of 24-well plates is coated with Cultrex® basement membrane (50 μl/well; 10 mg/ml) on ice and then allowed to polymerize at 37° C. for 30 minutes. HUVECs (3×10^4) are seeded on coated plates in the presence of conditioned media of tumor cells treated with the conjugate and its controls. After 8 hours of incubation (37° C.; 5% CO2), wells are imaged using bright-field technique (Nikon TE2000E inverted microscope integrated with Nikon DS5 cooled CCD camera by 4× objective).
The effect of the PGA-PTX-DOX conjugate (Route 1, see, FIG. 18) on capillary-like tube formation of HUVECs was tested and compared to that of the free drugs, each alone and in combination, to that of PGA alone and to that of a PGA-PTX conjugate.
The effect of PGA, free PTX (80 nM), free C3, the conjugate PGA-C3, and the conjugates PGA-PTX and PGA-PTX-C3, at PTX-equivalent concentrations of 80 nM, on capillary-like tube formation of human umbilical vein endothelial cells (HUVEC) was evaluated, in order to confirm that anti-angiogenic properties of PTX are maintained after conjugation.

[1] = Zeta potential of conjugates; format: physicochemical; settings: Table 13
[2] = Conjugate size by DLS analysis; format: physicochemical; settings: estimated from DLS analysis
Description: Based on DLS analysis, it is estimated that the conjugate is 10 nm in size, which is a suitable size for selective distribution by the EPR effect.

ES-2 cells = experiment: ES-2 proliferation after 7 minutes treatment, wash and 72 hours in medium; format: cell-based, human; settings: wash
Description: The effect of PGA, free PTX and the conjugates PGA-PTX, PGA-C3, and PGA-PTX-C3 on proliferation of ES-2 cells was evaluated after incubation of the cells with each treatment for 7 minutes, washing the cells and incubation in medium for 72 hours.
Short incubation time was selected since in the usual 72-hour incubation time, both the targeted and non-targeted conjugates would have had sufficient time to internalize into the cells. Under these experiment conditions, only the targeted conjugate remained bound to the cells, while non-targeted polymers or conjugates washed off, resulting in lower efficacy.

In the case of “PGA-C3-PTX: PGA having attached C3 NCAM targeting peptide (SEQ ID NO:3) and PTX (GASKKPKRNIKA; also: conjugated to polyglutamic acid (PGA) and paclitaxel, site not given here)”, the “inhibition of capillary-like tube formation” value (HUVECs) is reported as “inhibited the formation of capillary-like tubes”, the Zeta potential [1] is reported as −27.3 mV and the “size of the conjugate” value [2] is reported as 10 nm. The inhibition of proliferation (ES-2 cells) was “inhibited the proliferation of ES-2 cells more than non-targeted PGA-PTX”.
